Measured values published in US9029378B2, “Substituted bicyclic aromatic carboxamide and urea compounds as vanilloid receptor ligands” (Gruenenthal GmbH, priority 2011, dated 2015).

The compounds below were run against T1, vanilloid receptor 1 (VR1/TRPV1 receptor) (Homo sapiens, UniProt Q8NER1) (assay: Functional testing on the vanilloid receptor 1 (FLIPR Ca2+ influx assay, capsaicin)). Conditions: @5 μM; Cap=capsaicin; read-out: inhibition (as a percentage), (f) (human being) Cap.
T1 construct: expressed in transfected cells; host or cells: CHO K1
T1 sequence (Q8NER1 whole entry): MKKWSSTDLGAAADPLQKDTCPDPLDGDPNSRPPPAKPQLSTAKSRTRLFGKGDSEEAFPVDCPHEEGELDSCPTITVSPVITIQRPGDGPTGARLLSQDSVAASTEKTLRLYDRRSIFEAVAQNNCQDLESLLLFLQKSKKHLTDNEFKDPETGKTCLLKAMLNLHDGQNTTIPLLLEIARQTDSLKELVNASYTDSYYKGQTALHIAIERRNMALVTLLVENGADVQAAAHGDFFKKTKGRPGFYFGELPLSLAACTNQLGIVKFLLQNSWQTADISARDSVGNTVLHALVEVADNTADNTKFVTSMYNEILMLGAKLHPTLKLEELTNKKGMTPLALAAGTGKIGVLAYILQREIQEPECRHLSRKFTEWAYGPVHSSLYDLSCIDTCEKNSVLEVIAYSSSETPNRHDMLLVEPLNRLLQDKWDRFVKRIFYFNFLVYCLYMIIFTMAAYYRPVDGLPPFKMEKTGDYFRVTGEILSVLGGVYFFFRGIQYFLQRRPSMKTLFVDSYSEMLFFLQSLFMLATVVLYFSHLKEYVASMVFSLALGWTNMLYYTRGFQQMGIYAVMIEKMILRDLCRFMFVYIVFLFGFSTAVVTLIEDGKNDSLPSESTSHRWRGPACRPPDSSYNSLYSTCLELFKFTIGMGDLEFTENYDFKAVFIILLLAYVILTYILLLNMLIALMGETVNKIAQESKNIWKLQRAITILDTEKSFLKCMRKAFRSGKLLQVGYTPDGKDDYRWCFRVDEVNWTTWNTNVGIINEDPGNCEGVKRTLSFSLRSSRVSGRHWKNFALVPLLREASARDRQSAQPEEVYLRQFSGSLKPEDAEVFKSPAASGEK
Format: cell-based, human being
Procedure: Furthermore, preference may be given to compounds according to the invention that cause a 50 percent displacement of capsaicin, which is present at a concentration of 100 nM, in a FLIPR assay with CHO K1 cells which were transfected with the human VR1 gene at a concentration of less than 2,000 nM, preferably less than 1,000 nM, particularly preferably less than 300 nM, most particularly preferably less than 100 nM, even more preferably less than 75 nM, additionally preferably less than 50 nM, most preferably less than 10 nM.
In the process, the Ca^2+ influx is quantified in the FLIPR assay with the aid of a Ca^2+-sensitive dye (type Fluo-4, Molecular Probes Europe BV, Leiden, the Netherlands) in a fluorescent imaging plate reader (FLIPR, Molecular Devices, Sunnyvale, USA), as described hereinafter.
Pharmacological Methods I. Functional Testing Carried Out on the Vanilloid Receptor 1 (VR1/TRPV1 Receptor) […]
The number of cells in the suspension is set to 3×10^5 per mL and 150 μL of this suspension are in each case introduced into a recess in the cell culture plates coated as described hereinbefore. In the incubator the plates are left for two to three days at 37° C., 5% by volume of CO2 and 95% relative humidity. Subsequently, the cells are loaded with 2 μM of Fluo-4 and 0.01% by volume of Pluronic F127 (Molecular Probes Europe BV, Leiden, the Netherlands) in HBSS buffer (Hank's buffered saline solution, Gibco Invitrogen GmbH, Karlsruhe, Germany) for 30 min at 37° C., washed 3 times with HBSS buffer and after further incubation for 15 minutes at room temperature used for Ca^2+ measurement in a FLIPR assay. The Ca^2+-dependent fluorescence is in this case measured before and after the addition of substances (λex=488 nm, λem=540 nm). Quantification is carried out by measuring the highest fluorescence intensity (FC, fluorescence counts) over time.
The FLIPR protocol consists of 2 substance additions. First the compounds to be tested (10 μM) are pipetted onto the cells and the Ca^2+ influx is compared with the control (capsaicin 10 μM). This provides the result in % activation based on the Ca^2+ signal after the addition of 10 μM of capsaicin (CP). After 5 minutes' incubation, 100 nM of capsaicin are applied and the Ca^2+ influx is also determined.
Desensitising agonists and antagonists lead to suppression of the Ca^2+ influx. The % inhibition is calculated compared to the maximum achievable inhibition with 10 μM of capsazepine. Triple analyses (n=3) are carried out and repeated in at least 3 independent experiments (N=4). Starting from the percentage displacement caused by different concentrations of the compounds to be tested of general formula I, IC50 inhibitory concentrations which cause a 50-percent displacement of capsaicin were calculated. Ki values for the test substances were obtained by conversion by means of the Cheng-Prusoff equation (Cheng, Prusoff; Biochem. Pharmacol. 22, 3099-3108, 1973).
The affinity of the compounds of to the invention for the vanilloid receptor 1 (VR1/TRPV1 receptor) was determined as described hereinbefore (pharmacological method I). The compounds of the invention display outstanding affinity to the VR1/TRPV1 receptor (Table 2). In Table 2 the abbreviations below have the following meanings: • Cap=capsaicin • AG=agonist • NE=no effect
The value after the “@” symbol indicates the concentration at which the inhibition (as a percentage) was respectively determined.

inhibition at 5 µM [%]	Compound
45	Cc1cc(NC(=O)NCc2ccc(C(F)(F)F)nc2N2CCC(C)CC2)c2cn[nH]c2c1 [Example 56, 1-(6-Methyl-1H-indazol-4-yl)-3-((2-(4-methylpiperidin-1-yl)-6-(trifluoromethyl)pyridin-3-yl)methyl)urea]

Same assay, conditions: Cap=capsaicin (100 nM); Ki from IC50 by Cheng-Prusoff equation; read-out: (f) Ki (human being) [nM] Cap

Ki [nM]	Compound
1	CC1CCN(c2nc(C(F)(F)F)ccc2CNC(=O)Nc2cccc3[nH]ccc23)CC1 [Example 38, 1-(1H-Indol-4-yl)-3-((2-(4-methylpiperidin-1-yl)-6-(trifluoromethyl)pyridin-3-yl)methyl)urea]
5	CC1CCN(c2nc(C(F)(F)F)ccc2CNC(=O)Nc2cccc3c2ccn3C)CC1 [Example 40, 1-(1-Methyl-1H-indol-4-yl)-3-((2-(4-methylpiperidin-1-yl)-6-(trifluoromethyl)pyridin-3-yl)methyl)urea]
8	CC(=O)n1ccc2c(NC(=O)NCc3ccc(C(F)(F)F)nc3N3CCC(C)CC3)cccc21 [Example 41, 1-(1-Acetyl-1H-indol-4-yl)-3-((2-(4-methylpiperidin-1-yl)-6-(trifluoromethyl)pyridin-3-yl)methyl)urea]
2	CC1CCN(c2nc(C(F)(F)F)ccc2CNC(=O)Nc2cccc3c2ccn3S(C)(=O)=O)CC1 [Example 42, 1-((2-(4-Methylpiperidin-1-yl)-6-(trifluoromethyl)pyridin-3-yl)methyl)-3-(1-(methylsulfonyl)-1H-indol-4-yl)urea]
8	CC1CCN(c2nc(C(F)(F)F)ccc2CNC(=O)Nc2cccc3[nH]c(C(C)(C)C)cc23)CC1 [Example 43, 1-(2-Tert-butyl-1H-indol-4-yl)-3-((2-(4-methylpiperidin-1-yl)-6-(trifluoromethyl)pyridin-3-yl)methyl)urea]
0.4	CC1CCN(c2nc(C(F)(F)F)ccc2CNC(=O)Nc2cccc3[nH]ncc23)CC1 [Example 44, 1-(1H-indazol-4-yl)-3-((2-(4-methylpiperidin-1-yl)-6-(trifluoromethyl)pyridin-3-yl)methyl)urea]
7	CN(C)C1(c2ccccc2)CCN(c2nc(C(F)(F)F)ccc2CNC(=O)Nc2cccc3[nH]ncc23)CC1 [Example 45, 1-((2-(4-(dimethylamino)-4-phenylpiperidin-1-yl)-6-(trifluoromethyl)pyridin-3-yl)methyl)-3-(1H-indazol-4-yl)urea]
0.5	CC1CCN(c2nc(C(F)(F)F)ccc2CNC(=O)Nc2cccc3c2cnn3C)CC1 [Example 46, 1-(1-Methyl-1H-indazol-4-yl)-3-((2-(4-methylpiperidin-1-yl)-6-(trifluoromethyl)pyridin-3-yl)methyl)urea]
2	Cn1ncc2c(NC(=O)NCc3ccc(C(F)(F)F)nc3OCC3CCC3)cccc21 [Example 48, 1-((2-(Cyclobutylmethoxy)-6-(trifluoromethyl)pyridin-3-yl)methyl)-3-(1-methyl-1H-indazol-4-yl)urea]
13	CC(=O)n1ncc2c(NC(=O)NCc3ccc(C(F)(F)F)nc3N3CCC(C)CC3)cccc21 [Example 49, 1-(1-Acetyl-1H-indazol-4-yl)-3-((2-(4-methylpiperidin-1-yl)-6-(trifluoromethyl)pyridin-3-yl)methyl)urea]
3	CC1CCN(c2nc(C(F)(F)F)ccc2CNC(=O)Nc2cc(F)cc3[nH]ncc23)CC1 [Example 51, 1-(6-Fluoro-1H-indazol-4-yl)-3-((2-(4-methylpiperidin-1-yl)-6-(trifluoromethyl)pyridin-3-yl)methyl)urea]
2	CC1CCN(c2nc(C(C)(C)C)ccc2CNC(=O)Nc2cc(F)cc3[nH]ncc23)CC1 [Example 52, 1-((6-Tert-butyl-2-(4-methylpiperidin-1-yl)pyridin-3-yl)methyl)-3-(6-fluoro-1H-indazol-4-yl)urea]
1	CC1CCN(c2cc(C(F)(F)F)ccc2CNC(=O)Nc2cc(F)cc3[nH]ncc23)CC1 [Example 53, 1-(6-Fluoro-1H-indazol-4-yl)-3-(2-(4-methylpiperidin-1-yl)-4-(trifluoromethyl)benzyl)urea]
7	O=C(NCc1ccc(C(F)(F)F)cc1C1CCCC1)Nc1cc(F)cc2[nH]ncc12 [Example 54, 1-(2-Cyclopentyl-4-(trifluoromethyl)benzyl)-3-(6-fluoro-1H-indazol-4-yl)urea]
4	CC1CCN(c2nc(C(F)(F)F)ccc2CNC(=O)Nc2cc(Cl)cc3[nH]ncc23)CC1 [Example 55, 1-(6-Chloro-1H-indazol-4-yl)-3-((2-(4-methylpiperidin-1-yl)-6-(trifluoromethyl)pyridin-3-yl)methyl)urea]
3	CC1CCN(c2nc(C(F)(F)F)ccc2CNC(=O)Nc2c(Cl)ccc3[nH]ncc23)CC1 [Example 57, 1-(5-Chloro-1H-indazol-4-yl)-3-((2-(4-methylpiperidin-1-yl)-6-(trifluoromethyl)pyridin-3-yl)methyl)urea]
3	CC1CCN(c2nc(C(F)(F)F)ccc2CNC(=O)Nc2cccc3[nH]cnc23)CC1 [Example 58, 1-(1H-Benzo[d]imidazol-4-yl)-3-((2-(4-methylpiperidin-1-yl)-6-(trifluoromethyl)pyridin-3-yl)methyl)urea]
18	CC1CCN(c2nc(C(F)(F)F)ccc2CNC(=O)Nc2cccc3scnc23)CC1 [Example 59, 1-(Benzo[d]thiazol-4-yl)-3-((2-(4-methylpiperidin-1-yl)-6-(trifluoromethyl)pyridin-3-yl)methyl)urea]
1	CC1CCN(c2nc(C(F)(F)F)ccc2CNC(=O)Nc2cccc3ncsc23)CC1 [Example 60, 1-(Benzo[d]thiazol-7-yl)-3-((2-(4-methylpiperidin-1-yl)-6-(trifluoromethyl)pyridin-3-yl)methyl)urea]
1	CC1CCN(c2cc(C(C)(C)C)ccc2CNC(=O)Nc2cccc3ncccc23)CC1 [Example 62, 1-(4-Tert-butyl-2-(4-methylpiperidin-1-yl)benzyl)-3-(quinolin-5-yl)urea]
0.7	CC1CCN(c2cc(C(F)(F)F)ccc2CNC(=O)Nc2cccc3ncccc23)CC1 [Example 63, 1-(2-(4-Methylpiperidin-1-yl)-4-(trifluoromethyl)benzyl)-3-(quinolin-5-yl)urea]
1	CC1CCN(c2nc(C(C)(C)C)ccc2CNC(=O)Nc2cccc3ncccc23)CC1 [Example 64, 1-((6-Tert-butyl-2-(4-methylpiperidin-1-yl)pyridin-3-yl)methyl)-3-(quinolin-5-yl)urea]
4	CC(C)Oc1nc(C(F)(F)F)ccc1CNC(=O)Nc1cccc2ncccc12 [Example 65, 1-((2-Isopropoxy-6-(trifluoromethyl)pyridin-3-yl)methyl)-3-(quinolin-5-yl)urea]
2	CC(C)(C)COc1nc(C(F)(F)F)ccc1CNC(=O)Nc1cccc2ncccc12 [Example 66, 1-((2-(Neopentyloxy)-6-(trifluoromethyl)pyridin-3-yl)methyl)-3-(quinolin-5-yl)urea]

Compound	Ki [nM]
CN(C)C1(c2ccccc2)CCN(c2nc(C(F)(F)F)ccc2CNC(=O)Nc2cccc3[nH]ccc23)CC1 [Example 39, 1-((2-(4-(Dimethylamino)-4-phenylpiperidin-1-yl)-6-(trifluoromethyl)pyridin-3-yl)methyl)-3-(1H-indol-4-yl)urea]	8
CCCCOc1nc(C(F)(F)F)ccc1CNC(=O)Nc1cccc2c1cnn2C [Example 47, 1-((2-Butoxy-6-(trifluoromethyl)pyridin-3-yl)methyl)-3-(1-methyl-1H-indazol-4-yl)urea]	3
CCCCOc1nc(C(F)(F)F)ccc1CNC(=O)Nc1cccc2ncccc12 [Example 67, 1-((2-Butoxy-6-(trifluoromethyl)pyridin-3-yl)methyl)-3-(quinolin-5-yl)urea]	2
